Patent US20100234358A1, “NERAMEXANE FOR THE TREATMENT OF NYSTAGMUS” (MERZ PHARMA GMBH & CO. KGAA, priority 2007, published 2010)

What was measured:
[1] = test system: congenital, idiopathic nystagmus (subgroup: acquired nystagmus in MS patients); experiment: Double blind placebo controlled pilot trial of neramexane for treatment of nystagmus; type: in vivo, human; settings: as compared to the placebo group, Neramexane mesylate up to 75 mg/d, 7 weeks
Description: The objective of this pilot project is to conduct a clinical trial to assess the efficacy of neramexane as a treatment for nystagmus.
The primary objective of this study is to investigate the safety and efficacy of Neramexane mesylate at daily doses of up to 75 mg in the treatment of congenital, idiopathic nystagmus in comparison to placebo. In addition, a subgroup of up to 20 MS patients suffering from acquired nystagmus are included and analyzed in an exploratory manner. In both patient groups, effects of treatment is assessed in comparison with placebo using a two-period cross-over design (two treatment periods of 7 weeks each, separated by a wash-out phase.
The study is designed as a randomized, double-blind placebo-controlled, pilot study using a two-period cross-over design. Suitable patients are randomly assigned to one of the two treatment sequences of the cross-over trial (sequence A-B or B-A), i.e. double-blind treatment with Neramexane (A) and matching placebo tablets (B).
Patients with congenital nystagmus (no pathology other than nystagmus; primary analysis population) or acquired nystagmus subsequent to MS (exploratory analysis only) • male or female outpatients aged between 18 and 80 years (inclusive) at screening; • patients with a metric visual acuity (VA) of 6/9 or lower 6/9); • for females of childbearing potential (last menses less than one year prior to enrollment): negative pregnancy test at baseline; either surgically sterile or use of a medically accepted method of contraception during the entire duration of the study; • congenital idiopathic nystagmus patients: uneventful gross neurological examination; • MS patients: diagnosis ‘multiple sclerosis’ as confirmed on the basis of McDonald criteria; • normal results of electroretinography (ERG) and visually evoked potential (VEP) testing; historical results may be accepted (period of acceptability to be defined) • patients having given written informed consent; • patient expected and willing to comply with the scheduled visits, dosing scheme (in particular placebo), and other requirements of the study; • results of normal physical examination, electrocardiogram (ECG), and safety laboratory at screening, or abnormal findings which are judged not clinically significant by the investigator; • Refraction prior to enrolment and, if required, prescription and receipt of new glasses or contact lenses prior to baseline visual acuity measurement
Neramexane mesylate 25 mg modified release tablets and matching placebo tablets are administered as film coated tablets. […]
Visual acuity (VA) is the standard by which the outcomes of drug therapy in nystagmus are measured in the framework of clinical trials. […]

[2] = test system: N-methyl-D-aspartate (NMDA) receptors; settings: cited from earlier work
[3] = test system: congenital idiopathic and acquired nystagmus; settings: human, in vivo; cited from earlier work
[4] = test system: acquired pendular nystagmus due to multiple sclerosis; settings: in vivo; cited from earlier work

Structure (SMILES) | secondary outcome: expanded nystagmus acuity function [1] | secondary outcome: nystagmus intensity [1] | secondary outcome: reading ability [1] | primary outcomes, such as visual acuity ([1]; two-period cross-over) | NMDA-receptor affinity / mode of antagonism [2] | effectiveness in the treatment of congenital idiopathic and acquired nystagmus [3] | activity in acquired pendular nystagmus due to multiple sclerosis [4]
CC1(C)CC(C)(C)CC(C)(N)C1 [neramexane, 1-amino-1,3,3,5,5-pentamethylcyclohexane] | improvement | improvement | improvement | improvement | low to moderate-affinity, non-competitive NMDA-receptor antagonist | – | –
CC12CC3CC(C)(C1)CC(N)(C3)C2 [memantine] | – | – | – | – | – | may be effective | demonstrated activity
